Measured values taken from PubChem BioAssay AID1963424 (Molecular Pharmacology Branch, DTP, NCI, 2024).
Where “and” joins values, the source holds several entries; their conditions need not be identical. Identical values can stand only once.

System: 327498-153-R-J2-PDC complex spheroid growth, % test/control
Experiment: Anticancer human tumor 327498-153-R-J2-PDC patient-derived uterine carcinosarcoma cell line growth inhibition [Asc]
Settings: for viability, T/C: stronger effect = lower value
How it was run: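 Tumor cells were grown as complex spheroids with human endothelial cells (HUVEC) and human mesenchymal stem cells as stroma. Agents were tested alone and in combination, in half-log steps down from the clinical Cmax, or from 10 microM where Cmax was unknown.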

[1] = curve of first compound, second compound 0.1 µM
[2] = curve of first compound, second compound 0.316 µM
[3] = curve of first compound, second compound 1 µM
[4] = second compound 0.1 µM, first compound 0.0316 µM
[5] = second compound 0.1 µM, first compound 0.1 µM
[6] = second compound 0.1 µM, first compound 0.316 µM
[7] = second compound 0.1 µM, first compound 1 µM
[8] = second compound 0.316 µM, first compound 0.0316 µM
[9] = second compound 0.316 µM, first compound 0.1 µM
[10] = second compound 0.316 µM, first compound 0.316 µM
[11] = second compound 0.316 µM, first compound 1 µM
[12] = second compound 1 µM, first compound 0.0316 µM
[13] = second compound 1 µM, first compound 0.1 µM
[14] = second compound 1 µM, first compound 0.316 µM
[15] = second compound 1 µM, first compound 1 µM
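Further: spheroids exposed to compound for 7 days after 3 days of growth.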
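Wherever viability, T/C is given: 100% = DMSO vehicle control wells.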

## COc1c(OCCCN2CCOCC2)ccc2c3n(c(=NC(=O)c4cnc(N)nc4)nc12)CCN3 + Cc1c(S(C)(=O)=O)c(-c2cc(F)cc(N3CCN(c4ccc(NS(=O)(=O)c5ccc(NC(CCN6CCC(C(=O)OCCCP(=O)(O)O)CC6)CSc6ccccc6)c(S(=O)(=O)C(F)(F)F)c5)cc4)CC3)c2)c(-c2ccc(Cl)cc2)n1C(C)C
[1]
  IC50: 104 nM
[2]
  IC50: 96.5 nM
[3]
  IC50: 79.2 nM
Curve of first compound, second compound 3.16 µM
  IC50: 86.4 nM
Curve of first compound, second compound 10 µM
  IC50: 168 nM
Second compound 0.1 µM, first compound 0.00316 µM
  viability, T/C: 81.3%
Second compound 0.1 µM, first compound 0.01 µM
  viability, T/C: 91.2%
[4]
  viability, T/C: 80.3%
[5]
  viability, T/C: 46.8%
[6]
  viability, T/C: 24.6%
[7]
  viability, T/C: 5.06%
Second compound 0.316 µM, first compound 0.00316 µM
  viability, T/C: 91.3%
Second compound 0.316 µM, first compound 0.01 µM
  viability, T/C: 84.4%
[8]
  viability, T/C: 77.2%
[9]
  viability, T/C: 48.7%
[10]
  viability, T/C: 18.9%
[11]
  viability, T/C: 4.02%
Second compound 1 µM, first compound 0.00316 µM
  viability, T/C: 91.1%
Second compound 1 µM, first compound 0.01 µM
  viability, T/C: 83.6%
[12]
  viability, T/C: 63.9%
[13]
  viability, T/C: 48.7%
[14]
  viability, T/C: 20.8%
[15]
  viability, T/C: 3.26%
Second compound 3.16 µM, first compound 0.00316 µM
  viability, T/C: 91.5%
Second compound 3.16 µM, first compound 0.01 µM
  viability, T/C: 79.2%
Second compound 3.16 µM, first compound 0.0316 µM
  viability, T/C: 72.2%
Second compound 3.16 µM, first compound 0.1 µM
  viability, T/C: 48.9%
Second compound 3.16 µM, first compound 0.316 µM
  viability, T/C: 16.1%
Second compound 3.16 µM, first compound 1 µM
  viability, T/C: 2.71%
Second compound 10 µM, first compound 0.00316 µM
  viability, T/C: 166%
Second compound 10 µM, first compound 0.01 µM
  viability, T/C: 169%
Second compound 10 µM, first compound 0.0316 µM
  viability, T/C: 151%
Second compound 10 µM, first compound 0.1 µM
  viability, T/C: 73%
Second compound 10 µM, first compound 0.316 µM
  viability, T/C: 24%
Second compound 10 µM, first compound 1 µM
  viability, T/C: 4.08%

## CNC(C)C(=O)NC1CN(S(=O)(=O)c2cccc(S(=O)(=O)N3CCC4CCC(C(=O)NC(c5ccccc5)c5ccccc5)N4C(=O)C(NC(=O)C(C)NC)C3)c2)CCC2CCC(C(=O)NC(c3ccccc3)c3ccccc3)N2C1=O (stereo not drawn)
Compound 0.00316 µM
  viability, T/C: 95.8% and 104%
Compound 0.01 µM
  viability, T/C: 96.8% [middle of 15 runs]
Compound 0.0316 µM
  viability, T/C: 98.1% [middle of 15 runs]
Compound 0.1 µM
  viability, T/C: 99.2% [middle of 15 runs]
Compound 0.316 µM
  viability, T/C: 99.9% [middle of 15 runs]
Compound 1 µM
  viability, T/C: 96.2% [middle of 15 runs]
Compound alone, run of 10/03/2022
  IC50: > 1000 nM
Curve of compound
  IC50: > 1000 nM

## Cn1ncnc1[C@H]1c2n[nH]c(=O)c3cc(F)cc(c23)N[C@@H]1c1ccc(F)cc1 + CCN1C(C(=O)NC23CCC(C(=O)O)(CC2)CC3)C(c2cccc(Cl)c2F)C2(C(=O)Nc3cc(Cl)ccc32)C12CCCCC2
Curve of first compound, second compound 0.03 µM
  IC50: 6.09 nM
Curve of first compound, second compound 0.0949 µM
  IC50: 2.66 nM
Curve of first compound, second compound 0.3 µM
  IC50: < 0.316 nM
Curve of first compound, second compound 0.949 µM
  IC50: < 0.316 nM
Curve of first compound, second compound 3 µM
  IC50: < 0.316 nM
Second compound 0.03 µM, first compound 0.000316 µM
  viability, T/C: 99.9%
Second compound 0.03 µM, first compound 0.001 µM
  viability, T/C: 90%
Second compound 0.03 µM, first compound 0.00316 µM
  viability, T/C: 70.8%
Second compound 0.03 µM, first compound 0.01 µM
  viability, T/C: 34.8%
Second compound 0.03 µM, first compound 0.0316 µM
  viability, T/C: 12.6%
Second compound 0.03 µM, first compound 0.1 µM
  viability, T/C: 6.28%
Second compound 0.0949 µM, first compound 0.000316 µM
  viability, T/C: 75.8%
Second compound 0.0949 µM, first compound 0.001 µM
  viability, T/C: 73.4%
Second compound 0.0949 µM, first compound 0.00316 µM
  viability, T/C: 45%
Second compound 0.0949 µM, first compound 0.01 µM
  viability, T/C: 17.4%
Second compound 0.0949 µM, first compound 0.0316 µM
  viability, T/C: 7.19%
Second compound 0.0949 µM, first compound 0.1 µM
  viability, T/C: 4.65%
Second compound 0.3 µM, first compound 0.000316 µM
  viability, T/C: 45.2%
Second compound 0.3 µM, first compound 0.001 µM
  viability, T/C: 28.2%
Second compound 0.3 µM, first compound 0.00316 µM
  viability, T/C: 16%
Second compound 0.3 µM, first compound 0.01 µM
  viability, T/C: 6.36%
Second compound 0.3 µM, first compound 0.0316 µM
  viability, T/C: 3.88%
Second compound 0.3 µM, first compound 0.1 µM
  viability, T/C: 3.44%
Second compound 0.949 µM, first compound 0.000316 µM
  viability, T/C: 5.73%
Second compound 0.949 µM, first compound 0.001 µM
  viability, T/C: 7.29%
Second compound 0.949 µM, first compound 0.00316 µM
  viability, T/C: 3.58%
Second compound 0.949 µM, first compound 0.01 µM
  viability, T/C: 1.98%
Second compound 0.949 µM, first compound 0.0316 µM
  viability, T/C: 2.28%
Second compound 0.949 µM, first compound 0.1 µM
  viability, T/C: 1.93%
Second compound 3 µM, first compound 0.000316 µM
  viability, T/C: 3.13%
Second compound 3 µM, first compound 0.001 µM
  viability, T/C: 8.85%
Second compound 3 µM, first compound 0.00316 µM
  viability, T/C: 2.79%
Second compound 3 µM, first compound 0.01 µM
  viability, T/C: 2.59%
Second compound 3 µM, first compound 0.0316 µM
  viability, T/C: 1.49%
Second compound 3 µM, first compound 0.1 µM
  viability, T/C: 2.35%

## O=C(c1cc(Cc2n[nH]c(=O)c3ccccc23)ccc1F)N1CCN(C(=O)C2CC2)CC1 + CNC(C)C(=O)NC1CN(S(=O)(=O)c2cccc(S(=O)(=O)N3CCC4CCC(C(=O)NC(c5ccccc5)c5ccccc5)N4C(=O)C(NC(=O)C(C)NC)C3)c2)CCC2CCC(C(=O)NC(c3ccccc3)c3ccccc3)N2C1=O
Curve of first compound, second compound 0.01 µM
  IC50: 4520 nM
Curve of first compound, second compound 0.0316 µM
  IC50: 3830 nM
[1]
  IC50: 3780 nM
[2]
  IC50: 4070 nM
[3]
  IC50: 3710 nM
Second compound 0.01 µM, first compound 0.0316 µM
  viability, T/C: 98.8%
Second compound 0.01 µM, first compound 0.1 µM
  viability, T/C: 105%
Second compound 0.01 µM, first compound 0.316 µM
  viability, T/C: 102%
Second compound 0.01 µM, first compound 1 µM
  viability, T/C: 99.2%
Second compound 0.01 µM, first compound 3.16 µM
  viability, T/C: 67.9%
Second compound 0.01 µM, first compound 10 µM
  viability, T/C: 11.3%
Second compound 0.0316 µM, first compound 0.0316 µM
  viability, T/C: 102%
Second compound 0.0316 µM, first compound 0.1 µM
  viability, T/C: 100%
Second compound 0.0316 µM, first compound 0.316 µM
  viability, T/C: 108%
Second compound 0.0316 µM, first compound 1 µM
  viability, T/C: 88.5%
Second compound 0.0316 µM, first compound 3.16 µM
  viability, T/C: 58.7%
Second compound 0.0316 µM, first compound 10 µM
  viability, T/C: 9.57%
[4]
  viability, T/C: 97.5%
[5]
  viability, T/C: 99.9%
[6]
  viability, T/C: 102%
[7]
  viability, T/C: 89.8%
Second compound 0.1 µM, first compound 3.16 µM
  viability, T/C: 57.6%
Second compound 0.1 µM, first compound 10 µM
  viability, T/C: 9.51%
[8]
  viability, T/C: 104%
[9]
  viability, T/C: 107%
[10]
  viability, T/C: 94.5%
[11]
  viability, T/C: 91.4%
Second compound 0.316 µM, first compound 3.16 µM
  viability, T/C: 60.3%
Second compound 0.316 µM, first compound 10 µM
  viability, T/C: 11.1%
[12]
  viability, T/C: 96.8%
[13]
  viability, T/C: 100%
[14]
  viability, T/C: 94.5%
[15]
  viability, T/C: 90.3%
Second compound 1 µM, first compound 3.16 µM
  viability, T/C: 56.4%
Second compound 1 µM, first compound 10 µM
  viability, T/C: 9.85%
